Assay results from patent US10035840B2, “Targeted coagulation factors and method of using the same” (Bayer HealthCare LLC, priority 2008, dated 2018).
Positions of bridges follow the written chain, without caps; N, C: chain ends. Non-standard residues stand in square brackets, D forms with d. Residues, ends and D or L forms follow the SMILES beside them. Groups on a side chain read outwards from the residue. *: point of attachment. FITC = O=C1OC2(c3ccc(O)cc3Oc3cc(O)ccc32)c2ccc(NC(=S)*)cc21; Propanoyl(3-maleimido) = O=C1C=CC(=O)N1CCC(=O)*; hArg = N=C(N)NCCCC[C@H](N)C(=O)O; Ahx = NCCCCCC(=O)O; Mpa = O=C(O)CCS

Target: T1, GPIIb-IIIa (Homo sapiens, UniProt P05106+P08514)
T1 construct: purchased Innovative Research, Novi, Mich
T1 sequence (P08514 32-887 limits assumed): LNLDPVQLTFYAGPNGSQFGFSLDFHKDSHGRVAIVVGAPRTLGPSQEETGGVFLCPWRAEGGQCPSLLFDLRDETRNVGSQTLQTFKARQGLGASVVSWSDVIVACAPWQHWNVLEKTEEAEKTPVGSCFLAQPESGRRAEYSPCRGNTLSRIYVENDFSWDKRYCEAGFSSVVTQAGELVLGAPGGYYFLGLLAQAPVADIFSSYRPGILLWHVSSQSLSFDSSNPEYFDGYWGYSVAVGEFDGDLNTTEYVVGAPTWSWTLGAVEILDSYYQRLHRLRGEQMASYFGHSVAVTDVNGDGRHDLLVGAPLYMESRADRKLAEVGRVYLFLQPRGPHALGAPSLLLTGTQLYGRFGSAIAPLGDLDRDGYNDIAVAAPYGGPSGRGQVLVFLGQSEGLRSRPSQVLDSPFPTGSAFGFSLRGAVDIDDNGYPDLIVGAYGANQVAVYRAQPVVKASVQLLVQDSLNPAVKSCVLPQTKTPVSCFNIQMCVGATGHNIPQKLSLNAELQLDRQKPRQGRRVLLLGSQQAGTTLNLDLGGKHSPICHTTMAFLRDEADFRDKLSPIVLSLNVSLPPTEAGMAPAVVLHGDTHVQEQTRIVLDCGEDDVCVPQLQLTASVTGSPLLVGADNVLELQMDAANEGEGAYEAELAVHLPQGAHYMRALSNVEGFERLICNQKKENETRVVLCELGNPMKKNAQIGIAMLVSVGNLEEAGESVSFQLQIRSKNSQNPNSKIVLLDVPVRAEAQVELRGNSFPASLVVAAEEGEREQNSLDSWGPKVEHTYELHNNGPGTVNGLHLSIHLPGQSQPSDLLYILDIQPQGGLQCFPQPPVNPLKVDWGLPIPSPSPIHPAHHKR
T1 sequence (P05106 27-788): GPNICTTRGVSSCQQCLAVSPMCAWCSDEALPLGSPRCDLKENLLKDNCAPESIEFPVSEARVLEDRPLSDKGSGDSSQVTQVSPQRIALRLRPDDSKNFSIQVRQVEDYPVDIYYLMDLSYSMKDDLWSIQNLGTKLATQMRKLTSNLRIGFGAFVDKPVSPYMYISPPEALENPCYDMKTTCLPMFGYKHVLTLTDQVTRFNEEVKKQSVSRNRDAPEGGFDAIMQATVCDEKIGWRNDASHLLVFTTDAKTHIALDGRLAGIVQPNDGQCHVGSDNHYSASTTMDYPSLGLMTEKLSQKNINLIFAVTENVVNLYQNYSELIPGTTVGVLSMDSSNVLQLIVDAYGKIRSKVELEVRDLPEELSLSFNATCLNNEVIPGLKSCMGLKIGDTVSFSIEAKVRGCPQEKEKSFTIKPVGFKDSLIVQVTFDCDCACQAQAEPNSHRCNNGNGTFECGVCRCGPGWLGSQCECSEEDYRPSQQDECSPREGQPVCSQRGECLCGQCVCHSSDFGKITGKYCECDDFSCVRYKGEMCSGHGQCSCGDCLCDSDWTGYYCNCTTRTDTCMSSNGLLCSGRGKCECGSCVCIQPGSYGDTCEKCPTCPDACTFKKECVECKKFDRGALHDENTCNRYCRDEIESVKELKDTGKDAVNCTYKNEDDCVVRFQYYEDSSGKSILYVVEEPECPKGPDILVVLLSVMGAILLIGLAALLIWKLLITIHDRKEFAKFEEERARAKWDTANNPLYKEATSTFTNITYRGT
Assay: Solid phase binding assay: competition of fibrinogen binding to immobilized GPIIb-IIIa
Description: Peptide binding to GPIIb-IIIa was measured using a solid phase binding assay in which competition of fibrinogen binding by testing compounds is measured. The assay was performed as follows. Purified GPIIb-IIIa (Innovative Research, Novi, Mich.) was coated onto 96-well Immulon-B plates at […]×2 μg/mL, diluted in Buffer A (20 mM Tris pH 7.5, 0.15 M NaCl, and 1 mM each of MgCl2, CaCl2, and MnCl2). After overnight incubation at 4° C., the plate was blocked for 1 hour at 30° C., with 3.5% BSA in Buffer B (50 mM Tris pH 7.5, 0.1 M NaCl, and 1 mM each of MgCl2, CaCl2, and MnCl2). After washing 3 times with Buffer B, diluted peptide or protein solutions were combined with 3.5 nM biotinylated fibrinogen in 0.1% BSA/Buffer B and added to the wells, incubating at 30° C. for 2 hr. After washing (3 times, Buffer B), 1:4000 streptavidin-horseradish peroxidase (HRP) was added (Pierce Chemical Co., Rockford, Ill.) for 1 hour at 30° C. After a final washing step (3 times, Buffer B), the plate was developed with Ultra TMB (3,3′,5,5′-tetramentylbenzidine) (Pierce Chemical Co., Rockford, Ill.) for 5 minutes, stopping with an equal volume of 2 M sulfuric acid. Plate absorbances were read at 450 nm, and IC50 values determined using a 4-parameter logistic fit.

N=C(N)NCCCC[C@@H]1NC(=O)CCSSC[C@@H](C(=O)N[C@@H](CCCCNC(=O)CCCCCNC(=O)CCN2C(=O)C=CC2=O)C(N)=O)NC(=O)[C@@H]2CCCN2C(=O)[C@H](Cc2c[nH]c3ccccc23)NC(=O)[C@H](CC(=O)O)NC(=O)CNC1=O [BHRF-1] ([Mpa][hArg]GDWPCK([Ahx-Propanoyl(3-maleimido)])-NH2; disulfide 1-7)
Blocking of fibrinogen binding to immobilized GPIIb-IIIa, in words: potently blocked

N=C(N)NCCCC[C@@H]1NC(=O)CCSSC[C@@H](C(=O)N[C@@H](CCCCNC(=O)CCCCCNC(=O)CCN2C(=O)C=CC2=O)C(=O)N[C@@H](CCCCNC(=S)Nc2ccc3c(c2)C(=O)OC32c3ccc(O)cc3Oc3cc(O)ccc32)C(N)=O)NC(=O)[C@@H]2CCCN2C(=O)[C@H](Cc2c[nH]c3ccccc23)NC(=O)[C@H](CC(=O)O)NC(=O)CNC1=O [BHRF-3] ([Mpa][hArg]GDWPCK([Ahx-Propanoyl(3-maleimido)])K(FITC)-NH2; disulfide 1-7)
Blocking of fibrinogen binding to immobilized GPIIb-IIIa, in words: potently blocked

N=C(N)NCCCC[C@@H]1NC(=O)CCSSC[C@@H](C(N)=O)NC(=O)[C@@H]2CCCN2C(=O)[C@H](Cc2c[nH]c3ccccc23)NC(=O)[C@H](CC(=O)O)NC(=O)CNC1=O [Integrelin, reference compound] ([Mpa][hArg]GDWPC-NH2; disulfide 1-7)
IC50 (3.5 nM biotinylated fibrinogen, mean +/- spread, N in separate column or in text, read-out: IC50, inhibition of fibrinogen binding to immobilized GPIIb/IIIa): 1.3 nM
